Target mRNA inhibition data for 25 substances are collected here from the OligoGym collection.

“And” between values parts separate entries of the source, which are not always exact repeats. Equal values may be shown once. HELM strings list units from the 5' end as sugar, base in round brackets, then linkage (d deoxyribose, r ribose, m 2'-O-methyl, p phosphodiester). Methylation of C is not given here. [moe] = 2'-O-(2-methoxyethyl) (MOE); [cEt] = constrained ethyl (cEt); [sp] = phosphorothioate linkage

The data set deals with HBV. The settings on record: ASO.

On to “RNA1{[moe](G)[sp].[moe](T)[sp].[moe](G)[sp].[moe](A)[sp].[moe](A)[sp].d(G)[sp].d(C)[sp].d(G)[sp].d(A)[sp].d(A)[sp].d(G)[sp].d(T)[sp].d(G)[sp].d(C)[sp].[moe](A)[sp].[moe](C)[sp].[moe](A)}$$$$V2.0”, for which the target mRNA inhibition reads like this: (HepG2, 0.0092593 µM) 0%; (HepG2, 0.0277778 µM) 4%; (HepG2, 0.07 µM) 77% and 75%; (HepG2, 0.0833333 µM) 32%; (HepG2, 0.25 µM) 62%.

On to “RNA1{[moe](G)[sp].[moe](A)[sp].[moe](G)[sp].d(G)[sp].d(C)[sp].d(A)[sp].d(T)[sp].d(A)[sp].d(G)[sp].d(C)[sp].d(A)[sp].d(G)[sp].d(C)[sp].[cEt](A)[sp].[cEt](G)[sp].[cEt](G)}$$$$V2.0”, for which the target mRNA inhibition (HepG2, 0.07 µM) is 75% and 74%.

For “RNA1{[moe](G)[sp].[moe](A)[sp].[moe](A)[sp].d(C)[sp].d(A)[sp].d(A)[sp].d(A)[sp].d(T)[sp].d(G)[sp].d(G)[sp].d(C)[sp].d(A)[sp].d(C)[sp].[cEt](T)[sp].[cEt](A)[sp].[cEt](G)}$$$$V2.0”, the target mRNA inhibition (HepG2, 0.0092593 µM) came out at 15%; the target mRNA inhibition (HepG2, 0.0277778 µM) is 40%; the target mRNA inhibition (HepG2, 0.07 µM) is 80% and 81%; the target mRNA inhibition (HepG2, 0.0833333 µM) is 69%; the target mRNA inhibition (HepG2, 0.25 µM) was determined as 86%.

As for “RNA1{[moe](A)[sp].[moe](G)[sp].[moe](C)[sp].d(G)[sp].d(A)[sp].d(A)[sp].d(G)[sp].d(T)[sp].d(G)[sp].d(C)[sp].d(A)[sp].d(C)[sp].[moe](A)[sp].[moe](C)[sp].[moe](G)[sp].[moe](G)}$$$$V2.0”, the target mRNA inhibition by setting is: (HepG2, 0.0092593 µM) 11%; (HepG2, 0.0277778 µM) 34%; (HepG2, 0.07 µM) 79% and 70%; (HepG2, 0.0833333 µM) 66%; (HepG2, 0.25 µM) 87%.

Substance “RNA1{[moe](G)[sp].[moe](C)[sp].[moe](A)[sp].[moe](C)[sp].[moe](T)[sp].d(A)[sp].d(G)[sp].d(T)[sp].d(A)[sp].d(A)[sp].d(A)[sp].d(C)[sp].d(T)[sp].d(G)[sp].[moe](A)[sp].[moe](G)}$$$$V2.0” registered a target mRNA inhibition (HepG2, 0.07 µM) of 60%.

On to “RNA1{[moe](T)[sp].[moe](G)[sp].[moe](A)[sp].d(A)[sp].d(G)[sp].d(C)[sp].d(G)[sp].d(A)[sp].d(A)[sp].d(G)[sp].d(T)[sp].d(G)[sp].[moe](C)[sp].[moe](A)[sp].[moe](C)[sp].[moe](A)}$$$$V2.0”, for which the target mRNA inhibition (HepG2, 0.0092593 µM) is 11%; the target mRNA inhibition (HepG2, 0.0277778 µM) turned out to be 22%; the target mRNA inhibition (HepG2, 0.07 µM) was 76% and 66%; the target mRNA inhibition (HepG2, 0.0833333 µM) amounted to 44%; the target mRNA inhibition (HepG2, 0.25 µM) was found to be 64%.

“RNA1{[moe](A)[sp].[moe](G)[sp].[moe](A)[sp].d(G)[sp].d(G)[sp].d(T)[sp].d(G)[sp].d(A)[sp].d(A)[sp].d(G)[sp].d(C)[sp].d(G)[sp].[moe](A)[sp].[moe](A)[sp].[moe](G)[sp].[moe](T)}$$$$V2.0”: the target mRNA inhibition (HepG2, 0.07 µM) is 51% and 44%.

For the substance “RNA1{[moe](G)[sp].[moe](C)[sp].d(A)[sp].d(C)[sp].d(T)[sp].d(A)[sp].d(G)[sp].d(T)[sp].d(A)[sp].d(A)[sp].d(A)[sp].[moe](C)[sp].[moe](T)[sp].[moe](G)[sp].[moe](A)[sp].[moe](G)}$$$$V2.0”, for the setting “HepG2, 0.07 µM”, the target mRNA inhibition is 54% and 47%.

With “RNA1{[moe](G)[sp].[moe](A)[sp].[moe](G)[sp].[cEt](G)[sp].[cEt](T)[sp].d(G)[sp].d(A)[sp].d(A)[sp].d(G)[sp].d(C)[sp].d(G)[sp].d(A)[sp].[cEt](A)[sp].[cEt](G)[sp].[moe](T)[sp].[moe](G)[sp].[moe](C)}$$$$V2.0”, the target mRNA inhibition was 19% (HepG2, 0.009375 µM); 27% (HepG2, 0.01875 µM); 35% (HepG2, 0.0375 µM); 48% (HepG2, 0.075 µM); 50% (HepG2, 0.15 µM); 63% (HepG2, 0.3 µM).

For “RNA1{[moe](G)[sp].[moe](A)[sp].[moe](G)[sp].[moe](A)[sp].[moe](A)[sp].d(G)[sp].d(T)[sp].d(C)[sp].d(C)[sp].d(A)[sp].d(C)[sp].d(C)[sp].d(A)[sp].d(C)[sp].[moe](G)[sp].[moe](A)[sp].[moe](G)}$$$$V2.0”, the target mRNA inhibition (HepG2, 0.07 µM) is 20% and 13%.

As for “RNA1{[moe](A)[sp].[moe](A)[sp].d(C)[sp].d(T)[sp].d(G)[sp].d(G)[sp].d(A)[sp].d(G)[sp].d(C)[sp].d(C)[sp].d(A)[sp].[moe](C)[sp].[moe](C)[sp].[moe](A)[sp].[moe](G)[sp].[moe](C)}$$$$V2.0”, under “HepG2, 0.07 µM”, the target mRNA inhibition is 48% and 43%.

As for “RNA1{[moe](C)[sp].[cEt](G)[sp].d(A)[sp].d(A)[sp].d(C)[sp].d(C)[sp].d(A)[sp].d(C)[sp].d(T)[sp].d(G)[sp].d(A)[sp].d(A)[sp].[cEt](C)[sp].[moe](A)[sp].[cEt](A)[sp].[moe](A)}$$$$V2.0”, under “HepG2, 0.07 µM”, the target mRNA inhibition was 45% and 49%.

As to “RNA1{[moe](G)[sp].[moe](G)[sp].[moe](T)[sp].d(G)[sp].d(A)[sp].d(A)[sp].d(G)[sp].d(C)[sp].d(G)[sp].d(A)[sp].d(A)[sp].d(G)[sp].d(T)[sp].[cEt](G)[sp].[cEt](C)[sp].[cEt](A)}$$$$V2.0”, the target mRNA inhibition (HepG2, 0.0092593 µM) came to 15%; the target mRNA inhibition (HepG2, 0.0277778 µM) was determined as 42%; the target mRNA inhibition (HepG2, 0.07 µM) was 72% and 83%; the target mRNA inhibition (HepG2, 0.0833333 µM) was determined as 67%; the target mRNA inhibition (HepG2, 0.25 µM) was 88%.

In the case of “RNA1{[moe](C)[sp].[moe](A)[sp].d(G)[sp].d(A)[sp].d(G)[sp].d(G)[sp].d(T)[sp].d(G)[sp].d(A)[sp].d(A)[sp].d(G)[sp].[moe](C)[sp].[moe](G)[sp].[moe](A)[sp].[moe](A)[sp].[moe](G)}$$$$V2.0”, for the setting “HepG2, 0.07 µM”, the target mRNA inhibition was 35% and 36%.

For “RNA1{[moe](C)[sp].[cEt](C)[sp].d(A)[sp].d(A)[sp].d(T)[sp].d(T)[sp].d(T)[sp].d(A)[sp].d(T)[sp].d(G)[sp].d(C)[sp].d(C)[sp].[cEt](T)[sp].[moe](A)[sp].[cEt](C)[sp].[moe](A)}$$$$V2.0”, the target mRNA inhibition (HepG2, 0.07 µM) was 37% and 55%.

Regarding “RNA1{[moe](G)[sp].[moe](A)[sp].[moe](G)[sp].[moe](T)[sp].d(T)[sp].d(C)[sp].d(C)[sp].d(G)[sp].d(C)[sp].d(A)[sp].d(G)[sp].d(T)[sp].d(A)[sp].[moe](T)[sp].[moe](G)[sp].[moe](G)[sp].[moe](A)}$$$$V2.0”, the target mRNA inhibition (HepG2, 0.07 µM) was 62% and 51%.

For “RNA1{[moe](A)[sp].[moe](A)[sp].[moe](C)[sp].[moe](C)[sp].[moe](A)[sp].d(C)[sp].d(T)[sp].d(G)[sp].d(A)[sp].d(A)[sp].d(C)[sp].d(A)[sp].d(A)[sp].d(A)[sp].[moe](T)[sp].[moe](G)[sp].[moe](G)}$$$$V2.0”, the target mRNA inhibition (HepG2, 0.07 µM) was 55% and 52%.

“RNA1{[moe](A)[sp].[cEt](A)[sp].[cEt](G)[sp].d(A)[sp].d(T)[sp].d(G)[sp].d(A)[sp].d(G)[sp].d(G)[sp].d(C)[sp].d(A)[sp].d(T)[sp].d(A)[sp].[cEt](G)[sp].[cEt](C)[sp].[moe](A)}$$$$V2.0”: for the setting “HepG2, 0.07 µM”, the target mRNA inhibition is 64% and 62%.

For “RNA1{[moe](C)[sp].[moe](A)[sp].[moe](C)[sp].[moe](T)[sp].[moe](A)[sp].[moe](G)[sp].d(T)[sp].d(A)[sp].d(A)[sp].d(A)[sp].d(C)[sp].d(T)[sp].d(G)[sp].d(A)[sp].d(G)[sp].[moe](C)[sp].[moe](C)}$$$$V2.0”, the target mRNA inhibition was 12% (HepG2, 0.0092593 µM); 40% (HepG2, 0.0277778 µM); 87% and 72% (HepG2, 0.07 µM); 42% (HepG2, 0.0833333 µM); 65% (HepG2, 0.25 µM).

Regarding “RNA1{[moe](T)[sp].[moe](G)[sp].[moe](G)[sp].d(A)[sp].d(G)[sp].d(C)[sp].d(C)[sp].d(A)[sp].d(C)[sp].d(C)[sp].d(A)[sp].d(G)[sp].d(C)[sp].[cEt](A)[sp].[cEt](G)[sp].[cEt](G)}$$$$V2.0”, under “HepG2, 0.07 µM”, the target mRNA inhibition is 60% and 67%.

Consider “RNA1{[moe](A)[sp].[moe](G)[sp].[moe](T)[sp].d(T)[sp].d(C)[sp].d(C)[sp].d(G)[sp].d(C)[sp].d(A)[sp].d(G)[sp].d(T)[sp].d(A)[sp].[moe](T)[sp].[moe](G)[sp].[moe](G)[sp].[moe](A)[sp].[moe](T)}$$$$V2.0”, for which the target mRNA inhibition (HepG2, 0.07 µM) is 60% and 64%.

Consider “RNA1{[moe](G)[sp].[moe](C)[sp].d(A)[sp].d(T)[sp].d(A)[sp].d(G)[sp].d(C)[sp].d(A)[sp].d(G)[sp].d(C)[sp].d(A)[sp].[moe](G)[sp].[moe](G)[sp].[moe](A)[sp].[moe](T)[sp].[moe](G)}$$$$V2.0”, for which the target mRNA inhibition (HepG2, 0.07 µM) was 39% and 24%.

For the substance “RNA1{[moe](G)[sp].[cEt](T)[sp].d(G)[sp].d(A)[sp].d(A)[sp].d(G)[sp].d(C)[sp].d(G)[sp].d(A)[sp].d(A)[sp].d(G)[sp].d(T)[sp].[cEt](G)[sp].[moe](C)[sp].[cEt](A)[sp].[moe](C)}$$$$V2.0”, the target mRNA inhibition is 18% (HepG2, 0.0092593 µM); 36% (HepG2, 0.0277778 µM); 81% and 80% (HepG2, 0.07 µM); 75% (HepG2, 0.0833333 µM); 88% (HepG2, 0.25 µM).

“RNA1{[moe](G)[sp].[moe](A)[sp].[moe](G)[sp].[moe](G)[sp].[moe](C)[sp].d(A)[sp].d(T)[sp].d(A)[sp].d(G)[sp].d(C)[sp].d(A)[sp].d(G)[sp].d(C)[sp].d(A)[sp].[moe](G)[sp].[moe](G)[sp].[moe](A)}$$$$V2.0”: the target mRNA inhibition (HepG2, 0.07 µM) is 47% and 43%.

In the case of “RNA1{[moe](C)[sp].[moe](C)[sp].[moe](G)[sp].[moe](C)[sp].[moe](A)[sp].d(G)[sp].d(T)[sp].d(A)[sp].d(T)[sp].d(G)[sp].d(G)[sp].d(A)[sp].d(T)[sp].d(C)[sp].[moe](G)[sp].[moe](G)[sp].[moe](C)}$$$$V2.0”, the target mRNA inhibition was 5% (HepG2, 0.0092593 µM); 38% (HepG2, 0.0277778 µM); 86% and 76% (HepG2, 0.07 µM); 65% (HepG2, 0.0833333 µM); 86% (HepG2, 0.25 µM).
